This note sets out measurements from US20170022201A1, “MACROCYLIC PYRIDINE DERIVATIVES” (Janssen Pharmaceutica NV, priority 2014, published 2017).

The target in one data set is T1, EF2K (Homo sapiens, UniProt O00418).
T1 construct: host or cells: LN-229 glioblastoma cell lysate
T1 sequence (O00418 1-725): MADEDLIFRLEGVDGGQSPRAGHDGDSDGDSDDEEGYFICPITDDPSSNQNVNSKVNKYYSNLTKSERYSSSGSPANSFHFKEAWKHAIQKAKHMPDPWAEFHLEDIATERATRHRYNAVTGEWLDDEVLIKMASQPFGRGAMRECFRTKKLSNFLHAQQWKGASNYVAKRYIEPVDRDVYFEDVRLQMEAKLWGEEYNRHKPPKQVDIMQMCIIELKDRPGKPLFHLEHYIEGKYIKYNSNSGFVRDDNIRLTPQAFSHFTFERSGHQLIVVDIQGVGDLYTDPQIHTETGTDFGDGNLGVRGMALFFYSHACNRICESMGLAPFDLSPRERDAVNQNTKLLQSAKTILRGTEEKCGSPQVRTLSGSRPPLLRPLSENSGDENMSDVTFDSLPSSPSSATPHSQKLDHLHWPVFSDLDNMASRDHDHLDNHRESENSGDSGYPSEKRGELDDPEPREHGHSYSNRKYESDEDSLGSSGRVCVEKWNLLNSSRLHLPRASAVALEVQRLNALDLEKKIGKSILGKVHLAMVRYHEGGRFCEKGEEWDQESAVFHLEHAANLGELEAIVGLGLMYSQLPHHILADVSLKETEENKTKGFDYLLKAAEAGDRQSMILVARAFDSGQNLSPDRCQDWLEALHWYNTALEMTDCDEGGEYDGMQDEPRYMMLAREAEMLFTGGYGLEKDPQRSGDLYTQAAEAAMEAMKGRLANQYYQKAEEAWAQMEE
Description: Biochemical EF2K lysate-based kinase assay (AlphaLISA p-eEF2 Thr56). The note with it: LN-229 cell lysates, 10 mM ATP, pH 6.6; pIC50 = -log IC50 (M); read-out: eEF2K_C_alphalisa pIC50 (converted). A digest of the protocol: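 LN-229 glioblastoma lysate supplied both EF2K and eEF2 substrate; compound incubated with lysate 15 minutes at room temperature at pH 6.6 with 10 mM Mg2+ and 10 mM ATP, then stopped with excess EDTA. Thr56-phosphorylated eEF2 detected by sandwich AlphaLISA, final read after overnight standing.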
Background: Alpha assays give light when donor and acceptor beads are brought close together.

The next data set deals with T2, eEF2K (Homo sapiens, UniProt O00418).
T2 construct: in the immortalized epithelial breast cell lines, MCF10A; host or cells: MCF10A immortalized breast epithelial cells
T2 sequence (O00418 1-725): T1 sequence (O00418 1-725)
Kind of data set: EF2K cell-based assay (P-EF2 AlphaLISA, 2-deoxyglucose stimulated MCF10A cells). The note with it: 2.5 mM 2-deoxyglucose 4 h, phosphorylation of EF2 at Thr 56, pIC50 = -log IC50 (M), read-out: eEF2K_C_PThr56 pIC50 (converted). A digest of the protocol: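 MCF10A cells pretreated with compound for 1 h, then stimulated with 2.5 mM 2-deoxyglucose for 4 h to deplete ATP and activate AMPK. Phospho-EF2 in lysates measured by AlphaLISA.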

A further data set concerns the target PIK3C3 lipid kinase (Homo sapiens, UniProt Q8NEB9). Description: Biochemical Vps34 lipid kinase assay (ADP-Glo). As to conditions: 20 μM ATP; for remaining activity at 1 µM: 1 h, single dose 1 μM, residual activity compared to control (DMSO), read-out: VPS34_1microM_%ofcntrl; for IC50: serial dilution 10 μM to 0.3 nM, pIC50 = -log IC50 (M). An outline of the steps:
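ADP-Glo luminescence measured PIK3C3 (7.6 nM) activity with 50 μM substrate, 20 μM ATP (apparent Km), 3 mM MnCl2, HEPES pH 7.5, 60 min at 30° C. Compounds tested at 1 μM single dose (residual activity vs DMSO) or half-log series 10 μM–0.3 nM giving pIC50.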

Chain of PIK3C3 lipid kinase (Q8NEB9 whole entry): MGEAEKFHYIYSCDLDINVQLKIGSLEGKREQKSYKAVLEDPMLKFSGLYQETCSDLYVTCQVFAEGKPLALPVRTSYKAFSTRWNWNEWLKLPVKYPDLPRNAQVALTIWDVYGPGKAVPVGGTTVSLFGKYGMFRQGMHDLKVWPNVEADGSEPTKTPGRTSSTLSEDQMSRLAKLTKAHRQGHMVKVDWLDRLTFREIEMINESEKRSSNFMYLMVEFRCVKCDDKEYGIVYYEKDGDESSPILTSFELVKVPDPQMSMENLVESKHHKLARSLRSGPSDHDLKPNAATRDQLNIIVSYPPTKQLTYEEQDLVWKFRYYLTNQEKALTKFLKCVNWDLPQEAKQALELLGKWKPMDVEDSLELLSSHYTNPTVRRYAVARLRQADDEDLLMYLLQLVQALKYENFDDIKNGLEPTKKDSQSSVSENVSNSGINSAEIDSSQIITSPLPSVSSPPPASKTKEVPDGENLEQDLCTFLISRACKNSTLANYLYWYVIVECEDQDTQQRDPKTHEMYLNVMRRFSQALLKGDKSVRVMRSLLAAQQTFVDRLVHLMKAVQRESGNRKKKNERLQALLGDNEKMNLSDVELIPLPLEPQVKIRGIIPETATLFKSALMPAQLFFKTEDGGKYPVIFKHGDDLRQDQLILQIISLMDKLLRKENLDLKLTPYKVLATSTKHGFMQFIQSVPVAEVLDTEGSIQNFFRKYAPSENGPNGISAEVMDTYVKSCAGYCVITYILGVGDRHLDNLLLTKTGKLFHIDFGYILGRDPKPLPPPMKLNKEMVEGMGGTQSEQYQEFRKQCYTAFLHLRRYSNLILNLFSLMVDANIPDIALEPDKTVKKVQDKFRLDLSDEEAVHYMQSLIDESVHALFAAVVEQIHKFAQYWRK

Turning to `O=C1CN2CCN(Cc3cccc(c3)Nc3cc(ccn3)-c3cnc(nc3)NCCCN1)C(CO)C2` (single isomer, unassigned) [Compound 7], the melting point (as a rule, the temperature, or range, at which the solid turns liquid) lay within 267.8 to 267.9 °C. Moreover, the IC50 at EF2K was 1.12e-07 M. In addition, the IC50 at eEF2K is 1.62e-05 M. Besides, on PIK3C3 lipid kinase, the remaining activity at 1 µM was 12.5% and the IC50 is 1.07e-07 M.

In the case of `O=C1CNCCNc2ccc(cn2)-c2ccnc(c2)Nc2cccc(c2)CN2CCN1CC2` [Compound 144], the melting point is 143 °C. Also, the IC50 at EF2K was about 1.51e-05 M. Further, at eEF2K, the IC50 is over 3.02e-05 M. The remaining activity at 1 µM on PIK3C3 lipid kinase stood at 53.7%.

`O=C1CN2CCC(CC2)Nc2cccc(c2)Nc2cc(ccn2)-c2cnc(nc2)NCCCN1` [Compound 106] showed a melting point of 255.3 to 256.8 °C. For the same compound, the IC50 on EF2K was 7.59e-07 M. The IC50 at eEF2K was 2.88e-05 M. Moreover, at PIK3C3 lipid kinase, the remaining activity at 1 µM came to 22.4% and the IC50 is 5.89e-07 M.

In turn, `O=C1CN2CCN(CC2)Cc2cccc(c2)Nc2cc(ccn2)-c2ccc(nc2)NCCN1` [Compound 70] gave a melting point of 252 °C. Further, the IC50 on EF2K is 5.62e-06 M. Moreover, the IC50 at eEF2K was over 3.02e-05 M. Also, at PIK3C3 lipid kinase, the remaining activity at 1 µM came to 72.6%.

`COCCCN1CCCN(C)C(=O)CN2CCN(CC2)Cc2cccc(c2)Nc2cc(ccn2)-c2cnc1nc2` [Compound 14] registered a melting point of 240 °C. In addition, the IC50 on EF2K is over 3.02e-05 M. Also, the IC50 on eEF2K was over 3.02e-05 M. For the same compound, the remaining activity at 1 µM at PIK3C3 lipid kinase came to 50.4%.

Compound `CC1CN2CCN1Cc1cccc(c1)Nc1cc(ccn1)-c1ccc(nc1)NCCCNC(=O)C2` (stereo not drawn) [Compound 71] returned a melting point of 162 °C. On EF2K, the IC50 is 3.31e-07 M. For the same compound, the IC50 at eEF2K was 2.45e-05 M. On PIK3C3 lipid kinase, the remaining activity at 1 µM was 32.1%.

Regarding `COCCN1CCN(C)C(=O)CN2CCN(CC2)Cc2cccc(c2)Nc2cc(ccn2)-c2cnc1nc2` [Compound 15], the melting point was found to be 240 °C. At EF2K, the IC50 is over 3.02e-05 M. Besides, at eEF2K, the IC50 is over 3.02e-05 M. Besides, the remaining activity at 1 µM at PIK3C3 lipid kinase was 67%.

In the case of `CNC(=O)C1CCNC(=O)CN2CCN(CC2)Cc2cccc(c2)Nc2cc(ccn2)-c2cnc(nc2)N1` (single isomer, unassigned) [Compound 124], the values for the IC50 at EF2K and on eEF2K were 3.98e-07 M and about 2.51e-05 M, respectively. For the same compound, the remaining activity at 1 µM on PIK3C3 lipid kinase was found to be 65.5%.

For the compound `O=C1CN2CCN(Cc3cccc(c3)Nc3cc(ccn3)-c3cnc(nc3)NCCCN1)CC21CC1` [Compound 28], the IC50 on EF2K was 2.24e-05 M; at eEF2K it was over 1e-05 M; at PIK3C3 lipid kinase it was over 1e-05 M.

On to `O=C1CN2CCN(CC2)Cc2cccc(c2)Nc2cc(ccn2)-c2ccc(nc2)N2CCCC2CCN1` (single isomer, unassigned) [Compound 142], for which the IC50 at EF2K is 3.55e-08 M; at eEF2K, 1.58e-06 M. Further, the remaining activity at 1 µM at PIK3C3 lipid kinase stood at 40%.

With `O=C1CN2CCC(CC2)Oc2cccc(c2)Nc2cc(ccn2)-c2cnc(nc2)NCCCN1` [Compound 90], the IC50 is 1.91e-08 M at EF2K, 5.25e-07 M at eEF2K and 6.17e-08 M against PIK3C3 lipid kinase.

As for `CN1CCN(CCCO)c2ncc(cn2)-c2ccnc(c2)Nc2cccc(c2)CN2CCN(CC2)CC1=O` [Compound 17], the IC50 on EF2K and on eEF2K was over 3.02e-05 M in each case. Further, at PIK3C3 lipid kinase, the remaining activity at 1 µM was 62.4%.

`CC1(C)CN2CCN1CC(=O)NCCCNc1ncc(cn1)-c1ccnc(c1)Nc1cccc(c1)C2` [Compound 18]: the IC50 on EF2K was 8.71e-08 M; at eEF2K, 1.05e-06 M; against PIK3C3 lipid kinase, 1.74e-07 M. At PIK3C3 lipid kinase, the remaining activity at 1 µM was 8.79%.

As for `CN1CCCNC(=O)CN2CCN(CC2)Cc2cccc(c2)Nc2cc(ccn2)-c2ccc1nc2` [Compound 72], the IC50 on EF2K is 2.88e-07 M; on eEF2K it was 5.89e-06 M. Further, at PIK3C3 lipid kinase, the remaining activity at 1 µM is 50.8%.

Regarding `COCC1C(=O)NCCCNc2ncc(cn2)-c2ccnc(c2)Nc2cccc(c2)CN2CCN1CC2` (single isomer, unassigned) [Compound 5], the IC50 at EF2K is 1.12e-07 M; at eEF2K, 2.51e-06 M; against PIK3C3 lipid kinase, 4.47e-07 M. In addition, the remaining activity at 1 µM at PIK3C3 lipid kinase came to 22.4%.

Regarding `CNC(=O)c1ccc2cc1CN1CCN(CC1)CC(=O)NCCCNc1ncc(cn1)-c1ccnc(c1)N2` [Compound 9], the IC50 at EF2K is 3.47e-08 M; at eEF2K, about 5.5e-06 M; against PIK3C3 lipid kinase, 1.66e-07 M. Also, the remaining activity at 1 µM on PIK3C3 lipid kinase worked out at 7.1%.

As for `O=C1CN2CCN(CC2)Cc2cccc(c2)Nc2cc(ccn2)-c2cnc(nc2)CN(C(=O)C2CC2)CCN1` [Compound 131], the values for the IC50 on EF2K and at eEF2K were 6.17e-08 M and 2.51e-06 M, respectively. The remaining activity at 1 µM at PIK3C3 lipid kinase stood at 56.2%.

`O=C1CN2CCN(CC2)C2(CC2)c2cccc(c2)Nc2cc(ccn2)-c2cnc(nc2)NCCCN1` [Compound 73]: the IC50 at EF2K was 5.25e-06 M; at eEF2K it was over 1e-05 M; against PIK3C3 lipid kinase it was over 1e-05 M.

Turning to `CC1CN2CCN1Cc1cccc(c1)Nc1cc(ccn1)-c1cnc(nc1)N1CC(O)CC1CCNC(=O)C2` (stereo not drawn) [Compound 59], the IC50 was 3.47e-08 M at EF2K, 8.51e-07 M on eEF2K and 4.17e-07 M against PIK3C3 lipid kinase.
